Reference: ChEMBL document CHEMBL1240351, “Molecular epidemiology of metallo-beta-lactamase-producing Pseudomonas aeruginosa isolates from Norway and Sweden shows import of international clones and local clonal expansion” (2010)
Converted amounts (≈) assume the structure as drawn.

How the values were obtained:
Type in all cases: functional
Pseudomonas aeruginosa [1] = test: Antimicrobial activity against Pseudomonas aeruginosa isolate BU-20287 producing metallo-beta-lactamase VIM2 by Etest
Pseudomonas aeruginosa [2] = test: Antimicrobial activity against Pseudomonas aeruginosa isolate BNL-1681 producing metallo-beta-lactamase VIM2 by Etest
Pseudomonas aeruginosa [3] = test: Antimicrobial activity against Pseudomonas aeruginosa isolate K34-7 producing metallo-beta-lactamase VIM2 by Etest
Pseudomonas aeruginosa [4] = test: Antimicrobial activity against Pseudomonas aeruginosa isolate K44-24 producing metallo-beta-lactamase IMP14 by Etest
Pseudomonas aeruginosa [5] = test: Antimicrobial activity against Pseudomonas aeruginosa isolate BU-43038 producing metallo-beta-lactamase VIM2 by Etest
Pseudomonas aeruginosa [6] = test: Antimicrobial activity against Pseudomonas aeruginosa isolate B4-25753 producing metallo-beta-lactamase VIM2 by Etest
Pseudomonas aeruginosa [7] = test: Antimicrobial activity against Pseudomonas aeruginosa isolate K34-73 producing metallo-beta-lactamase VIM4 by Etest
Pseudomonas aeruginosa [8] = test: Antimicrobial activity against Pseudomonas aeruginosa isolate BU-36178 producing metallo-beta-lactamase VIM2 by Etest
Pseudomonas aeruginosa [9] = test: Antimicrobial activity against Pseudomonas aeruginosa isolate PA66 producing metallo-beta-lactamase VIM4 by Etest
Pseudomonas aeruginosa [10] = test: Antimicrobial activity against Pseudomonas aeruginosa isolate OS-210 producing metallo-beta-lactamase VIM2 by Etest
Pseudomonas aeruginosa [11] = test: Antimicrobial activity against Pseudomonas aeruginosa isolate K45-32 producing metallo-beta-lactamase VIM2 by Etest
Pseudomonas aeruginosa [12] = test: Antimicrobial activity against Pseudomonas aeruginosa isolate AK5493 producing metallo-beta-lactamase VIM2 by Etest
Pseudomonas aeruginosa [13] = test: Antimicrobial activity against Pseudomonas aeruginosa isolate U9-19005 producing metallo-beta-lactamase VIM2 by Etest

Row | SMILES | MIC (Pseudomonas aeruginosa [1]) | MIC (Pseudomonas aeruginosa [2]) | MIC (Pseudomonas aeruginosa [3]) | MIC (Pseudomonas aeruginosa [4]) | MIC (Pseudomonas aeruginosa [5]) | MIC (Pseudomonas aeruginosa [6]) | MIC (Pseudomonas aeruginosa [7]) | MIC (Pseudomonas aeruginosa [8]) | MIC (Pseudomonas aeruginosa [9]) | MIC (Pseudomonas aeruginosa [10]) | MIC (Pseudomonas aeruginosa [11]) | MIC (Pseudomonas aeruginosa [12]) | MIC (Pseudomonas aeruginosa [13])
1 | CC(C)(O/N=C(\C(=O)N[C@@H]1C(=O)N2C(C(=O)[O-])=C(C[n+]3ccccc3)CS[C@H]12)c1csc(N)n1)C(=O)O [CEFTAZIDIME] | 64 µg/mL (≈ 117 µM) | 64 µg/mL (≈ 117 µM) | 64 µg/mL (≈ 117 µM) | 64 µg/mL (≈ 117 µM) | 64 µg/mL (≈ 117 µM) | 64 µg/mL (≈ 117 µM) | 64 µg/mL (≈ 117 µM) | 64 µg/mL (≈ 117 µM) | 64 µg/mL (≈ 117 µM) | 64 µg/mL (≈ 117 µM) | 64 µg/mL (≈ 117 µM) | 64 µg/mL (≈ 117 µM) | 64 µg/mL (≈ 117 µM)
2 | O=C(O)c1cn(C2CC2)c2cc(N3CCNCC3)c(F)cc2c1=O [CIPROFLOXACIN] | 16 µg/mL (≈ 48.3 µM) | 16 µg/mL (≈ 48.3 µM) | 16 µg/mL (≈ 48.3 µM) | 16 µg/mL (≈ 48.3 µM) | 16 µg/mL (≈ 48.3 µM) | 16 µg/mL (≈ 48.3 µM) | 16 µg/mL (≈ 48.3 µM) | 16 µg/mL (≈ 48.3 µM) | 16 µg/mL (≈ 48.3 µM) | 16 µg/mL (≈ 48.3 µM) | 16 µg/mL (≈ 48.3 µM) | 16 µg/mL (≈ 48.3 µM) | 16 µg/mL (≈ 48.3 µM)
3 | NC[C@H]1O[C@H](O[C@H]2[C@H](O)[C@@H](O[C@H]3O[C@H](CO)[C@@H](O)[C@H](N)[C@H]3O)[C@H](N)C[C@@H]2N)[C@H](N)C[C@@H]1O [TOBRAMYCIN] | 32 µg/mL (≈ 68.4 µM) | 32 µg/mL (≈ 68.4 µM) | 32 µg/mL (≈ 68.4 µM) | 32 µg/mL (≈ 68.4 µM) | 32 µg/mL (≈ 68.4 µM) | 32 µg/mL (≈ 68.4 µM) | 32 µg/mL (≈ 68.4 µM) | 32 µg/mL (≈ 68.4 µM) | 32 µg/mL (≈ 68.4 µM) | 32 µg/mL (≈ 68.4 µM) | 32 µg/mL (≈ 68.4 µM) | 32 µg/mL (≈ 68.4 µM) | 32 µg/mL (≈ 68.4 µM)
4 | O=C(O)C1=CC[C@@H]2CC(=O)N12 [CARBAPENEM] | > 32 µg/mL | > 32 µg/mL | > 32 µg/mL | > 32 µg/mL | > 32 µg/mL | > 32 µg/mL | > 32 µg/mL | > 32 µg/mL | > 32 µg/mL | > 32 µg/mL | > 32 µg/mL | > 32 µg/mL | > 32 µg/mL
5 | NCC[C@H](O)C(=O)N[C@@H]1C[C@H](N)[C@@H](O[C@H]2O[C@H](CN)[C@@H](O)[C@H](O)[C@H]2O)[C@H](O)[C@H]1O[C@H]1O[C@H](CO)[C@@H](O)[C@H](N)[C@H]1O [AMIKACIN] | 32 µg/mL (≈ 54.6 µM) | 32 µg/mL (≈ 54.6 µM) | 32 µg/mL (≈ 54.6 µM) | 32 µg/mL (≈ 54.6 µM) | 32 µg/mL (≈ 54.6 µM) | 32 µg/mL (≈ 54.6 µM) | 32 µg/mL (≈ 54.6 µM) | 32 µg/mL (≈ 54.6 µM) | 32 µg/mL (≈ 54.6 µM) | 32 µg/mL (≈ 54.6 µM) | 32 µg/mL (≈ 54.6 µM) | 32 µg/mL (≈ 54.6 µM) | 32 µg/mL (≈ 54.6 µM)
6 | CO/N=C(\C(=O)N[C@@H]1C(=O)N2C(C(=O)[O-])=C(C[N+]3(C)CCCC3)CS[C@H]12)c1csc(N)n1 [CEFEPIME] | 32 µg/mL (≈ 66.6 µM) | 32 µg/mL (≈ 66.6 µM) | 32 µg/mL (≈ 66.6 µM) | 32 µg/mL (≈ 66.6 µM) | 32 µg/mL (≈ 66.6 µM) | 32 µg/mL (≈ 66.6 µM) | 32 µg/mL (≈ 66.6 µM) | 32 µg/mL (≈ 66.6 µM) | 32 µg/mL (≈ 66.6 µM) | 32 µg/mL (≈ 66.6 µM) | 32 µg/mL (≈ 66.6 µM) | 32 µg/mL (≈ 66.6 µM) | 32 µg/mL (≈ 66.6 µM)
